Measurements: patent US20130079287A1, “CAFFEOYLALPHANEOENDORPHIN PEPTIDE DERIVATIVE AND USE THEREOF AS ANTI-ITCHING AND ANTI-ATOPIC AGENTS” (priority 2011, published 2013)
Several values for one entry are separate records, joined by “and”; a condition that tells them apart may be missing. Equal values may be shown once. Marks after values point to notes of the source that are not given here. Where a SMILES comes first, the peptide text is derived from it. Where no end group is shown, it is not given here. The star is where a group is joined. Caffeoyl = O=C(/C=C/c1ccc(O)c(O)c1)*

Columns and labels:
[1] = Physical stability test under alternating temperature; type: physicochemical; details: alternating temperature 4/20/40° C. at 8 h interval, up to 60 days, naked eye
Source text: The physical stability under the condition of severe alternating temperature is an essential factor in the terms of the product property to be exposed to various external atmospheres in the case of cosmetics. The caffeoylalphaneoendorphin peptide derivative prepared from Example 1 has an increased stability to oxidation rather than that of caffeic acid in an aqueous solution. In order to confirm the increased physical stability, it was stored under the condition of alternating temperature for certain period time, and then its degradation degree was measured.
Firstly, 10,000 ppm concentration of caffeoylalphaneoendorphin peptide derivative aqueous solution was placed under the conditions of alternating temperatures, that is, low temperature (4° C.), room temperature (20° C.), and high temperature (40° C.) that were repeated at an interval of 8 hours, and then the physical stability was measured by the naked eye and HPLC Analysis for 30 days, 60 days, and 90 days.

[2] = tested on: peptidase derived from the cell disruption solution of fibroblast; experiment: Stability to peptidase, cell disruption solution of fibroblast; details: 10,000 ppm, 37° C., 6 hours
Method: (§1) After culturing at 37° C. for 6 hours, the residual contents were analyzed, and the existing contents were compared and evaluated on a percentage (%) to the initial existing contents.

[3] = tested on: peptidase derived from the cell disruption solution of keratinocyte; experiment: Stability to peptidase, cell disruption solution of keratinocyte; details: 10,000 ppm, 37° C., 6 hours
Method: as §1

NZW Rabbit skins = experiment: Skin irritation safety test (topical toxicity); type: in vivo, New Zealand White-Rabbit; design: key to Erythema & Eschar score: 0: Absolutely no erythema; 1: Very light erythema (barely identifiable level with the naked eye); 2: Obvious erythema; 3: A little serious erythema; 4: Serious erythema (carrot color) and crust formation; key to clinical signs: —: Normal; details: for clinical signs: female rabbit; for Edema score, Average / Edema score, Sum / Erythema & Eschar score, Average / Erythema & Eschar score, Sum: 6 animals
Method: In order to confirm the safety of caffeoyl peptide derivative according to the present invention to a human body skin when applying besides a skin that is an expected first human body application method, a topical toxicity skin irritation safety that is pre-clinical test method of pharmaceuticals was verified. The safety verification was performed by asking to Korea Research Institute of Chemical Technology that is an approved GLP Certificate Authority; the maximum application concentration range to skin irritation during topical toxicity was set at 10 mg/ml concentration, and then it was tested that irritant to a skin at the above concentration was not existed. For the above test, at least 6 of young and healthy white rabbits (New Zealand White-Rabbit, 2.0˜3.0 kg) were used. After selecting only healthy rabbits through observing a general symptom every day for 5 days during an accommodating period from an obtaining day, hairs of the abdominal regions of the selected rabbits was shaved away and then 6 rabbits with normal skins were used for test. […] An keeping environment was simply as follows: the test was performed in a rabbit keeping room in the institute by setting the temperature of 22° C., the relative humidity of 50%, a number of ventilation of 10˜15 number/hr, lighting of 12 h lights-on/12 h lights-off (08:00˜20:00), an intensity of illumination of 150˜300 Lux. For monitoring of keeping environment, whole humidity in an animal room was measured by an auto-measurer and environment conditions, such as, an intensity of illumination were regularly measured during a test period. As a result of environment measurement in an animal room, there was no change to affect to the test. The animals were kept individually in a stainless keeping box (380×480×300 mm, JungDo Industry) during accommodation, inspection, and observation periods. Feeds that was feeds for Rabbits, experiment animals, supplied from Cargillagripurina Cor. (Chonbuk, Gunsan-si Soyong dong 56-4) was freely taken by the animals, and water that was a filtered water through UV irradiation was freely taken by using a water bottle. In order to confirm the contaminant in the feeds and water, the contaminant of feeds was confirmed by receiving the feed report card according to regular test of manufacturer from a feeds supplier, and the contaminant of water was confirmed through the regular test according to applicable standard working water procedure (SOPs) of the institute.
The caffeoylalphaneoendorphin peptide derivative that was a test material prepared from Example 1 was dissolved in a concentration of 10 mg/ml (10,000 ppm), and then 0.5 ml per each animal was used by using the following method. […] The abraded skins were made to have a scratch without blood by using a needle end of syringe so that the horny layer of the skin was damaged, but the corium of the skin was not damaged. After the test materials were applied to one site of abraded skins and one site of intact skins, the sites were occlusive-patched with non-irritative tape and Coban for 24 hours. Control regions were applied with sterilized gauze wetted with sterilized distilled water by using the same method as the above (see FIG. 4).
In order to observe as to whether skin irritation was occurred, a change of general symptoms and as to whether animals were killed were observed during 72 hours after completing the application of test materials as the observation of general symptoms. In addition, the body weights per individual were measured immediately before applying the test materials and at 72 hours after applying the test materials. […] The evaluation of skin response and decision of irritant were performed based on the evaluation table of skin response as disclosed in the following Table 1. The decision of irritant content to the result was performed according to a calculation method of P.I.I. (Primary Irritation Index) by Draize, which is well used, generally (see Table 2).

[4] = test sites, abraded skin, 24 hour
[5] = test sites, abraded skin, 72 hour
[6] = test sites, intact skin, 24 hour
[7] = test sites, intact skin, 72 hour

Molecule: O=C(O)/C=C/c1ccc(O)c(O)c1 [caffeic acid]
- acidification of aqueous solution (change of transparency) [1]: serious acidification

Molecule: YGGFLRKYPK [alphaneoendorphin]
- degradation by peptidase [2]: considerably degraded
- degradation by peptidase [3]: considerably degraded

Molecule: CC(C)C[C@H](NC(=O)[C@H](Cc1ccccc1)NC(=O)CNC(=O)CNC(=O)[C@H](Cc1ccc(O)cc1)NC(=O)/C=C/c1ccc(O)c(O)c1)C(=O)N[C@@H](CCCNC(=N)N)C(=O)N[C@@H](CCCCN)C(=O)N[C@@H](Cc1ccc(O)cc1)C(=O)N1CCC[C@H]1C(=O)N[C@@H](CCCCN)C(=O)O [Caffeoyl (R1, R2, and R5 are hydrogen, and R3 and R4 are hydroxy)-alphaneoendorphin Peptide Derivative] (Caffeoyl-YGGFLRKYPK-OH)
- degradation by peptidase [2]: almost not degraded
- increase of existing contents versus alphaneoendorphin ([2]; HPLC): 5.9±2.1 times
- Body weights (NZW Rabbit skins; 0 hours (immediately before applying), per animal): 2237.2 g and 2511.9 g and 2684.9 g and 2408.4 g and 2478.1 g and 2347.3 g
- changes of body weights of all animals (NZW Rabbit skins; 0 to 72 hours): normally increased
- Body weight gains (NZW Rabbit skins; 0 to 72 hours, per animal): 76.2 g and 119.5 g and 103.1 g and 88.3 g and 133.6 g and 107.1 g
- toxicity in skin irritation test of topical toxicity (NZW Rabbit skins; 10 mg/ml): no toxicity
- Irritant Evaluation by P.I.I. (NZW Rabbit skins; 10 mg/ml applied over NZW Rabbit skins): none irritant
- clinical signs (NZW Rabbit skins; 10 mg/ml, 0.5 ml per animal, 0 hours after application, per animal): —
- clinical signs (NZW Rabbit skins; 10 mg/ml, 0.5 ml per animal, 24 hours after application, per animal): —
- clinical signs (NZW Rabbit skins; 10 mg/ml, 0.5 ml per animal, 48 hours after application, per animal): —
- clinical signs (NZW Rabbit skins; 10 mg/ml, 0.5 ml per animal, 72 hours after application, per animal): —
- Mortality (Number of dead animals/Number of total animals) (NZW Rabbit skins; 10 mg/ml, 0.5 ml per animal, female rabbits, 72 hours): 0/6^a
- Body weights (NZW Rabbit skins; 72 hours after application, per animal): 2313.4 g and 2631.4 g and 2788.0 g and 2496.7 g and 2611.7 g and 2454.4 g
- death or unusual symptoms related to the application (NZW Rabbit skins; during the test period): no death or unusual symptoms
- P.I.I (Primary Irritation Index) (NZW Rabbit skins; test sites, 10 mg/ml, (Sum or mean at 24 and 72 hrs)/4): 0.0
- Edema score, Average (NZW Rabbit skins; [4]): 0
- Edema score, Sum (NZW Rabbit skins; [4]): 0
- Erythema & Eschar score, Average (NZW Rabbit skins; [4]): 0
- Erythema & Eschar score, Sum (NZW Rabbit skins; [4]): 0
- Erythema & Eschar score (NZW Rabbit skins; test sites, abraded skin, 24 hour, per animal): 0
- Edema score, Average (NZW Rabbit skins; [5]): 0
- Edema score, Sum (NZW Rabbit skins; [5]): 0
- Erythema & Eschar score, Average (NZW Rabbit skins; [5]): 0
- Erythema & Eschar score, Sum (NZW Rabbit skins; [5]): 0
- Erythema & Eschar score (NZW Rabbit skins; test sites, abraded skin, 72 hour, per animal): 0
- Sum of Averages (NZW Rabbit skins; test sites, erythema & eschar and edema, 24 and 72 hour): 0.0
- Edema score, Average (NZW Rabbit skins; [6]): 0
- Edema score, Sum (NZW Rabbit skins; [6]): 0
- Erythema & Eschar score, Average (NZW Rabbit skins; [6]): 0
- Erythema & Eschar score, Sum (NZW Rabbit skins; [6]): 0
- Erythema & Eschar score (NZW Rabbit skins; test sites, intact skin, 24 hour, per animal): 0
- Edema score, Average (NZW Rabbit skins; [7]): 0
- Edema score, Sum (NZW Rabbit skins; [7]): 0
- Erythema & Eschar score, Average (NZW Rabbit skins; [7]): 0
- Erythema & Eschar score, Sum (NZW Rabbit skins; [7]): 0
- Erythema & Eschar score (NZW Rabbit skins; test sites, intact skin, 72 hour, per animal): 0
- degradation by peptidase [3]: almost not degraded
- increase of existing contents versus alphaneoendorphin ([3]; HPLC): 6.1±1.3 times
